Assay results published in ChEMBL document CHEMBL4507310, “Data for DCP probe A-1211212” (2021).

Tests used:
[1] = biological target: Tyrosine-protein kinase JAK3 (Homo sapiens) (UniProt P52333); details: Compound concentration 1000.0 nM
[2] = biological target: Tyrosine-protein kinase BTK (Homo sapiens) (UniProt Q06187); details: Compound concentration 1000.0 nM
[3] = biological target: Serine/threonine-protein kinase PAK 1 (Homo sapiens) (UniProt Q13153); details: Compound concentration 1000.0 nM
[4] = biological target: Sodium- and chloride-dependent GABA transporter 1 (Rattus norvegicus) (UniProt P23978); assay: GABA transporter Eurofins-Cerep binding assay; design: ligand concentration 10 nM; details: filed as antagonist, Compound concentration 10.0 uM
[5] = biological target: Cyclin-dependent kinase 4 (Homo sapiens) (UniProt P11802); details: Compound concentration 1000.0 nM
Sequence of Cyclin-dependent kinase 4 (Homo sapiens) (P11802 whole entry): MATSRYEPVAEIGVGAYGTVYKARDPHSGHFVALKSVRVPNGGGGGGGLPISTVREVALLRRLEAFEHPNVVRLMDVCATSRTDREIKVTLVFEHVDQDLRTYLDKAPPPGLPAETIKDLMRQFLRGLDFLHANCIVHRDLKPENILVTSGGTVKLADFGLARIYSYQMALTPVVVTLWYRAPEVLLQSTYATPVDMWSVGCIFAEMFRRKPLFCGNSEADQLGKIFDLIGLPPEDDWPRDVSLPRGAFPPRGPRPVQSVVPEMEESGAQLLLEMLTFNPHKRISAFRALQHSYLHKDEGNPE

[6] = biological target: D(1B) dopamine receptor (Homo sapiens) (UniProt P21918); details: Compound concentration 10.0 uM
[7] = biological target: LIM domain kinase 2 (Homo sapiens) (UniProt P53671); details: Compound concentration 1000.0 nM
[8] = biological target: Rho-associated protein kinase 1 (Homo sapiens) (UniProt Q13464); details: Compound concentration 1000.0 nM
[9] = biological target: 5-hydroxytryptamine receptor 4 (Homo sapiens) (UniProt Q13639); assay: 5-HT4 e (h) Eurofins-Cerep binding assay; design: ligand concentration 0.3 nM; details: filed as antagonist, Compound concentration 10.0 uM
[10] = biological target: T1, 5-hydroxytryptamine receptor 1A (Homo sapiens) (UniProt P08908); assay: 5-HT1A (h) Eurofins-Cerep binding assay; design: ligand concentration 0.5 nM; details: filed as agonist, Compound concentration 10.0 uM
T1 sequence (whole entry): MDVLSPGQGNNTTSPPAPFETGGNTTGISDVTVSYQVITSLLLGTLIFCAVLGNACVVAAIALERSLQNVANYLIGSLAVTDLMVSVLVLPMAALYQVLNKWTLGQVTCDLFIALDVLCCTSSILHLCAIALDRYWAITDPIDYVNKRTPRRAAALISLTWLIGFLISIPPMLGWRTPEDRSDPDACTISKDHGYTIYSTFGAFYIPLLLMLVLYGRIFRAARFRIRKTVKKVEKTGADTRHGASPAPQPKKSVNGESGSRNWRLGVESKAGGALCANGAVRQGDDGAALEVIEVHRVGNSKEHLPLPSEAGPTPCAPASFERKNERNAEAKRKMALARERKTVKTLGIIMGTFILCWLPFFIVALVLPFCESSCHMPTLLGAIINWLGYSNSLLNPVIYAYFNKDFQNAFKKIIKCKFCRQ

[11] = biological target: Dual specificity protein kinase CLK3 (Homo sapiens) (UniProt P49761); details: Compound concentration 1000.0 nM
[12] = biological target: Serine/threonine-protein kinase 38-like (Homo sapiens) (UniProt Q9Y2H1); details: Compound concentration 1000.0 nM
Sequence of Serine/threonine-protein kinase 38-like (Homo sapiens) (Q9Y2H1 2-464 limits assumed): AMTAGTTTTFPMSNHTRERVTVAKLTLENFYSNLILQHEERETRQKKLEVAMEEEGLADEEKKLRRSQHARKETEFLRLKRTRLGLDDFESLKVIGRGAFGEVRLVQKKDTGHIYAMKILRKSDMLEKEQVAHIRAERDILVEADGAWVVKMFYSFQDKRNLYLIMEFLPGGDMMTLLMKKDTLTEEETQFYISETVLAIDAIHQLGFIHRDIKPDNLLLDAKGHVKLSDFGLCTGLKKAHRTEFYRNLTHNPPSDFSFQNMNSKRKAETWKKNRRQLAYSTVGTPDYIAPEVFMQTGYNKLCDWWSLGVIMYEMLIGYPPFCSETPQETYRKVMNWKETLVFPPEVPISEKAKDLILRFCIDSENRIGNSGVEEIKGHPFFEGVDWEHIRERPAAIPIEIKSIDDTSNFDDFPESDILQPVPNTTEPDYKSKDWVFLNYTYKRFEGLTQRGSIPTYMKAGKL

[13] = biological target: Citron Rho-interacting kinase (Homo sapiens) (UniProt O14578); details: Compound concentration 1000.0 nM
Na+ channel (site 2) = Na+ channel (site 2) (Rattus norvegicus, UniProt F1LQQ7+O08562+O88420+O88457+P04774+P04775+P08104+P15389+P15390+Q62968); assay: Na+ channel (site 2) Eurofins-Cerep binding assay; type: protein assay; design: incubation time 60 min, incubation temperature 37°C, ligand concentration 10 nM; details: rat cerebral cortex, probe [3H]batrachotoxin (10 nM), compound concentration 10 uM, read-out: % Inhibition of Control Specific Binding (Mean n=2)
[14] = tested on: Hepatocyte growth factor receptor (Homo sapiens), P08581 [Y1235D]; details: Compound concentration 1000.0 nM
[15] = biological target: SNF-related serine/threonine-protein kinase (Homo sapiens) (UniProt Q9NRH2); details: Compound concentration 1000.0 nM
[16] = biological target: Serine/threonine-protein kinase 26 (Homo sapiens) (UniProt Q9P289); details: Compound concentration 1000.0 nM
[17] = biological target: Serine/threonine-protein kinase 35 (Homo sapiens) (UniProt Q8TDR2); details: Compound concentration 1000.0 nM
[18] = biological target: Ribosomal protein S6 kinase alpha-6 (Homo sapiens) (UniProt Q9UK32); details: Compound concentration 1000.0 nM
[19] = biological target: Mitogen-activated protein kinase kinase kinase 4 (Homo sapiens) (UniProt Q9Y6R4); details: Compound concentration 1000.0 nM
Sequence of Mitogen-activated protein kinase kinase kinase 4 (Homo sapiens) (Q9Y6R4 whole entry): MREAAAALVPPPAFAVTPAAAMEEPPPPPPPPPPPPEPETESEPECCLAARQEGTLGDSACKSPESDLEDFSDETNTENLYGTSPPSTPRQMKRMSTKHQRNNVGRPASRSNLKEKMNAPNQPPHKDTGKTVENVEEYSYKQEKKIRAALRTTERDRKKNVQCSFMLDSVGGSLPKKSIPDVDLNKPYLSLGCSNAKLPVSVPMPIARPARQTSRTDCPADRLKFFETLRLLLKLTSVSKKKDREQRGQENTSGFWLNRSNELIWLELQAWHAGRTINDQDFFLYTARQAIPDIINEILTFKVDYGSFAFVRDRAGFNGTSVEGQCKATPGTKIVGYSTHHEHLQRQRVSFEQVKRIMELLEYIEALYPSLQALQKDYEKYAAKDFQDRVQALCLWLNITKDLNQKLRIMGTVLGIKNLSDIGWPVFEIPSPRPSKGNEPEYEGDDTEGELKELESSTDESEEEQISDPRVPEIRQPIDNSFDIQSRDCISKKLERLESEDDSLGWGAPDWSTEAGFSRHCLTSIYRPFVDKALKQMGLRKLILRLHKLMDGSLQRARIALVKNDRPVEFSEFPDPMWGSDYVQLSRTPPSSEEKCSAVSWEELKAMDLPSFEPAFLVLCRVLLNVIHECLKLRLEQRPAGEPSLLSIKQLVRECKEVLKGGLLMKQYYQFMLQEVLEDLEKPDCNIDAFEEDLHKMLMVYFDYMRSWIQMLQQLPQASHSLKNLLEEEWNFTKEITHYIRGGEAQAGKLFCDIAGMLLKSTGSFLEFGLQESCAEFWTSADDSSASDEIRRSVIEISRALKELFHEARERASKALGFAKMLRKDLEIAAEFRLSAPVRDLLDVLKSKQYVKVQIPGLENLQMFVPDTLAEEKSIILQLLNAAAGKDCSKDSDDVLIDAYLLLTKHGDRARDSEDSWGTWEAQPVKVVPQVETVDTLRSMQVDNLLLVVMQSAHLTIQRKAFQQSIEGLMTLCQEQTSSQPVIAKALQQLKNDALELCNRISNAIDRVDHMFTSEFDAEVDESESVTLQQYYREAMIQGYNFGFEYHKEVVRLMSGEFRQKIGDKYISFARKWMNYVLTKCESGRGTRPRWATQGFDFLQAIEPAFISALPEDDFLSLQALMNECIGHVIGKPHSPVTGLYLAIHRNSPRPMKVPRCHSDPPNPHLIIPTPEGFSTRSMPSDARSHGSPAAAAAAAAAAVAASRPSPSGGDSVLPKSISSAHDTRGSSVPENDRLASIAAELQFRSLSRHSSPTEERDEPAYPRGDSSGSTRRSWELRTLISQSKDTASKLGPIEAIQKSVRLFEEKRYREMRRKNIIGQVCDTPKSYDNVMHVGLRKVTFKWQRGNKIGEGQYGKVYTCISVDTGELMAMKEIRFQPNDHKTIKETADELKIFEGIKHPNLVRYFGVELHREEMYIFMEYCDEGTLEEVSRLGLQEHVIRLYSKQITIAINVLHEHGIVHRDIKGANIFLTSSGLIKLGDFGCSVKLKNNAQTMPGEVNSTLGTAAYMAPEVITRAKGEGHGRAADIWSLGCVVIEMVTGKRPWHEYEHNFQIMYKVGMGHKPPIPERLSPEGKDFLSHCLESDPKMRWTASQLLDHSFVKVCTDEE

[20] = biological target: Cyclin-dependent kinase 16 (Homo sapiens) (UniProt Q00536); details: Compound concentration 1000.0 nM
Sequence of Cyclin-dependent kinase 16 (Homo sapiens) (Q00536 whole entry): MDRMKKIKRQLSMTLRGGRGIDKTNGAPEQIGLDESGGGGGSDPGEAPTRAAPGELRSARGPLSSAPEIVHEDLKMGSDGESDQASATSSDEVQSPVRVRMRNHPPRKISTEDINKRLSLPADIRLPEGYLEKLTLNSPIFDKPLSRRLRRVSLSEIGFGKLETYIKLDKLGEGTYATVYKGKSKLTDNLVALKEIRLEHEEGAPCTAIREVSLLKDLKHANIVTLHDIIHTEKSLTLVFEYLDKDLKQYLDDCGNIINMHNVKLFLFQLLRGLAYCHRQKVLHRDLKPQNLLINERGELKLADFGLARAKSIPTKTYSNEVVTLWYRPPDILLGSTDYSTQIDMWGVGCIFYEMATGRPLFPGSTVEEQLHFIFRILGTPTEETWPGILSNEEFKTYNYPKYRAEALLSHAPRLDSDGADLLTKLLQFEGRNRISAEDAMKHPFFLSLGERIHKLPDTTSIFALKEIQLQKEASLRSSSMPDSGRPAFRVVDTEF

[21] = biological target: Serine/threonine-protein kinase Nek4 (Homo sapiens) (UniProt P51957); details: Compound concentration 1000.0 nM
[22] = biological target: Serine/threonine-protein kinase PAK 4 (Homo sapiens) (UniProt O96013); details: Compound concentration 1000.0 nM
[23] = biological target: Macrophage colony-stimulating factor 1 receptor (Homo sapiens) (UniProt P07333); details: Compound concentration 1000.0 nM
[24] = biological target: Mitogen-activated protein kinase kinase kinase 9 (Homo sapiens) (UniProt P80192); details: Compound concentration 1000.0 nM
[25] = biological target: ALK tyrosine kinase receptor (Homo sapiens) (UniProt Q9UM73); details: Compound concentration 1000.0 nM
Sequence of ALK tyrosine kinase receptor (Homo sapiens) (Q9UM73 19-1620 limits assumed): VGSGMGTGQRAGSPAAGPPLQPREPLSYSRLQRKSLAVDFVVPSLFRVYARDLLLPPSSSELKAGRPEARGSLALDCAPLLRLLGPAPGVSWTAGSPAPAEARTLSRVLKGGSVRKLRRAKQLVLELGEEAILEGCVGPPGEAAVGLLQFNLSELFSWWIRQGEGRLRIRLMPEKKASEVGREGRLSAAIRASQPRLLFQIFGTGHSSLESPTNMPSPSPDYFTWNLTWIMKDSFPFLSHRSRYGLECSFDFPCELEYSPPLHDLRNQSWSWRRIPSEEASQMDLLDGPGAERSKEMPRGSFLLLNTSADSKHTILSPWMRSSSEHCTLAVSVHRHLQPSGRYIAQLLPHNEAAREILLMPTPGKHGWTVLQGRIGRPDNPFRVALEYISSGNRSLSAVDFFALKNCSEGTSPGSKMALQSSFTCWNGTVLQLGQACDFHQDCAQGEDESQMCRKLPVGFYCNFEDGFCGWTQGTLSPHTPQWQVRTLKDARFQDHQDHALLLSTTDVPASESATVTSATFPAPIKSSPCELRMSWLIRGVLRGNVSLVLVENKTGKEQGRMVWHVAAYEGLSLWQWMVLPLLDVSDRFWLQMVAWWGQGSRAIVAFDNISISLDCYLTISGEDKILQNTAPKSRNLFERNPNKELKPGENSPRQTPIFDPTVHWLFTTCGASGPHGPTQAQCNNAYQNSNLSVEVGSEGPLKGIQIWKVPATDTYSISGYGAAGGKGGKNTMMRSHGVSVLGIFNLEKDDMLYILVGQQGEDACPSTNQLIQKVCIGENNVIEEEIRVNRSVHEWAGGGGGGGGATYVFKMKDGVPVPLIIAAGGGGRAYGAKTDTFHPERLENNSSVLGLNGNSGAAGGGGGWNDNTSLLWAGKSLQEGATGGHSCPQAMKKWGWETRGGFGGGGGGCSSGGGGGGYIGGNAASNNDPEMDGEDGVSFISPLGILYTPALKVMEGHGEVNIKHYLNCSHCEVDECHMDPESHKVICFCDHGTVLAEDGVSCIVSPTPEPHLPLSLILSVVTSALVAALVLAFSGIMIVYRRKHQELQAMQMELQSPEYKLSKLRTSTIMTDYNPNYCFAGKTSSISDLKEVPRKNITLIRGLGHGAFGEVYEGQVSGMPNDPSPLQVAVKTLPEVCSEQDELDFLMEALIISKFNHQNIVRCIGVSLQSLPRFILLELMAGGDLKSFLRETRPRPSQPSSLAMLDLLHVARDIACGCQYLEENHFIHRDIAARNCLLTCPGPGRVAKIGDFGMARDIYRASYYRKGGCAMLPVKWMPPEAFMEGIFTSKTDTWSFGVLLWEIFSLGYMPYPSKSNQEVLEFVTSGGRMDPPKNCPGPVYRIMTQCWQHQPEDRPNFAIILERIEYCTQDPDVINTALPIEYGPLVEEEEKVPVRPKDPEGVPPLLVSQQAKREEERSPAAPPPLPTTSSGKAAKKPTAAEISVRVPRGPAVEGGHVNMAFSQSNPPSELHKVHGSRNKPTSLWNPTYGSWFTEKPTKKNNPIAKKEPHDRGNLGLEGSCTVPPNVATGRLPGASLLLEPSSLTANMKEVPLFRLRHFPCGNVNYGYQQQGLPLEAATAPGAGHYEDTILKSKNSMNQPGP

[26] = biological target: Dual specificity tyrosine-phosphorylation-regulated kinase 1A (Homo sapiens) (UniProt Q13627); details: Compound concentration 1000.0 nM
[27] = tested on: Fibroblast growth factor receptor 3 (Homo sapiens), P22607 [G697C]; details: Compound concentration 1000.0 nM
[28] = tested on: Epidermal growth factor receptor (Homo sapiens), P00533 [UNDEFINED MUTATION]; details: Compound concentration 1000.0 nM
[29] = biological target: Dual specificity tyrosine-phosphorylation-regulated kinase 2 (Homo sapiens) (UniProt Q92630); details: Compound concentration 1000.0 nM
Sequence of Dual specificity tyrosine-phosphorylation-regulated kinase 2 (Homo sapiens) (Q92630 whole entry): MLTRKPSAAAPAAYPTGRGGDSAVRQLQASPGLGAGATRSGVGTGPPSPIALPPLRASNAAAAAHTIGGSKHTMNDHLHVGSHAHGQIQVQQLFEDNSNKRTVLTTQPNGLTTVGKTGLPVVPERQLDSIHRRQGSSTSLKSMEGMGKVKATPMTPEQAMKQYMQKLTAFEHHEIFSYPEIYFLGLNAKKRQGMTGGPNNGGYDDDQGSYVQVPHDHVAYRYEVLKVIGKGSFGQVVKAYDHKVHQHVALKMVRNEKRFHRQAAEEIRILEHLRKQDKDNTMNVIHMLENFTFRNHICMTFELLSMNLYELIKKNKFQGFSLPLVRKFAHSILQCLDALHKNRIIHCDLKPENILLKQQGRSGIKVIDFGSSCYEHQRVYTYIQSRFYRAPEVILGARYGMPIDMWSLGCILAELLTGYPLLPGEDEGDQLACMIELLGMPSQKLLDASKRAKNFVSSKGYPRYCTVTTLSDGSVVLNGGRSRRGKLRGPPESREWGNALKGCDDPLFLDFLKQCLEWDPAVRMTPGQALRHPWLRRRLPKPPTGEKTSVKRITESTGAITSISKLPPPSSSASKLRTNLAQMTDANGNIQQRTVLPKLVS

[30] = biological target: Histamine H3 receptor (Homo sapiens) (UniProt Q9Y5N1); details: Compound concentration 10.0 uM
[31] = biological target: LIM domain kinase 1 (Homo sapiens) (UniProt P53667); details: Compound concentration 1000.0 nM
[32] = biological target: Receptor tyrosine-protein kinase erbB-3 (Homo sapiens) (UniProt P21860); details: Compound concentration 1000.0 nM
[33] = biological target: P2X receptor (Rattus norvegicus) (UniProt P51579+P49653+P51578+Q64663+P47824+P51577+P49654); assay: P2X Eurofins-Cerep binding assay; type: protein assay; design: ligand concentration 3 nM; details: filed as agonist, Compound concentration 10.0 uM
[34] = biological target: Endothelin receptor type B (Homo sapiens) (UniProt P24530); assay: ETB (h) Eurofins-Cerep binding assay; design: ligand concentration 0.03 nM; details: filed as agonist, Compound concentration 10.0 uM
[35] = biological target: Histamine H2 receptor (Homo sapiens) (UniProt P25021); assay: H2 (h) Eurofins-Cerep binding assay; design: ligand concentration 0.075 nM; details: filed as antagonist, Compound concentration 10.0 uM
[36] = biological target: Testis-specific serine/threonine-protein kinase 1 (Homo sapiens) (UniProt Q9BXA7); details: Compound concentration 1000.0 nM

SMILES | residual activity [1] [%] | residual activity [2] [%] | residual activity [3] [%] | % Inhibition of Control Specific Binding (Mean n=2) [4] [%] | residual activity [5] [%] | inhibition [6] [%] | residual activity [7] [%] | residual activity [8] [%] | % Inhibition of Control Specific Binding (Mean n=2) [9] [%] | % Inhibition of Control Specific Binding (Mean n=2) [10] [%] | residual activity [11] [%] | residual activity [12] [%] | residual activity [13] [%] | inhibition at 60 min, 10 µM (Na+ channel (site 2)) [%] | residual activity [14] [%] | residual activity [15] [%] | residual activity [16] [%] | residual activity [17] [%] | residual activity [18] [%] | residual activity [19] [%] | further results
CO[C@H]1CC[C@H](CNc2ccc(S(=O)(=O)NC(=O)c3ccc(N4CCN(CC5=C(c6ccc(Cl)cc6)CC(C)(C)CC5)CC4)cc3Oc3cnc4[nH]ccc4c3)cc2[N+](=O)[O-])CC1 [A-1211212] | 84 | 100 | 78 | -2.6 | 100 | 34.1 | 80 | 70 | -1 | -2.7 | 90 | 94 | 74 | -2.3 | 92 | 100 | 97 | 93 | 67 | 90 | residual activity [20]: 61%; residual activity [21]: 100%; residual activity [22]: 78%; residual activity [23]: 88%; residual activity [24]: 84%; residual activity [25]: 100%; residual activity [26]: 65%; residual activity [27]: 100%; residual activity [28]: 100%; residual activity [29]: 100%; inhibition [30]: 4.97%; residual activity [31]: 89%; residual activity [32]: 100%; % Inhibition of Control Specific Binding (Mean n=2) [33]: -2.7%; % Inhibition of Control Specific Binding (Mean n=2) [34]: -6.7%; % Inhibition of Control Specific Binding (Mean n=2) [35]: -22%; residual activity [36]: 67%
O=C(NS(=O)(=O)c1ccc(NCC2CCOCC2)c([N+](=O)[O-])c1)c1ccc(N2CCN(Cc3ccc(C(F)(F)F)cc3-c3ccc(Cl)cc3)CC2)cc1Oc1cnc2[nH]ccc2c1 [A-1210227] | 85 | 100 | 100 | -10.3 | 100 | 9.7 | 97 | 100 | -2 | -3.4 | 100 | 93 | 91 | -8.2 | 98 | 100 | 72 | 95 | 100 | 94 | residual activity [20]: 67%; residual activity [21]: 100%; residual activity [22]: 93%; residual activity [23]: 85%; residual activity [24]: 100%; residual activity [25]: 94%; residual activity [26]: 63%; residual activity [27]: 100%; residual activity [28]: 96%; residual activity [29]: 100%; inhibition [30]: -1.15%; residual activity [31]: 85%; residual activity [32]: 100%; % Inhibition of Control Specific Binding (Mean n=2) [33]: 10%; % Inhibition of Control Specific Binding (Mean n=2) [34]: -11.8%; % Inhibition of Control Specific Binding (Mean n=2) [35]: -948%; residual activity [36]: 100%
